Columns and labels:
NSC34 motor neurons = assay: NSC34 motor neuron viability (MTT) after hydrogen peroxide insult; type: cell-based, murine; details: H2O2 0.2 mM 30 min, MTT after 24 h
Source text: NSC34 murine spinal cord motor neuron derived cell line was used for this assay. This neuronal cell line is a classical in vitro platform validated for the study of neuroprotective agents. They share a lot of common physiological features with spinal cord neurons such as glutamate sensibility, acetyl choline secretion upon stimulation, functional neurites or characteristic neuronal sensibility and protection mechanisms against neurotoxic agents. Motoneuronal NSC-34 cells (Cedarlane, Burlington, Ontario, Canada) were cultured at 37° C. and 5% CO2 in Dulbecco's modified Eagle's medium (DMEM) supplemented with 10% fetal bovine serum (FBS), 1% penicillin/streptomycin and 0.04 mM L-glutamine. All reagents were purchased at Gibco-Invitrogen. NSC34 cells were seeded at low density (30000 cel/mL) in appropriate tissue culture vessels, 24-well plates for toxicity assays. In the experiments, cells were pretreated for 2 h with the compound of formula (I) (oleanolic acid, 4.44 mg/L), the compound of formula (II) (hydroxytyrosol, 1.54 mg/L) or the combination of the compound of formula (I) (oleanolic acid, 4.44 mg/L) and the compound of formula (II) (hydroxytyrosol, 1.54 mg/L). Stock solutions of the compounds (50 mM) were prepared in dimethylsulfoxide (DMSO, Sigma-Aldrich). Solutions for cell treatment were prepared by diluting stock solutions in culture media immediately before being added to the cells (DMSO concentration: 0.5%). Controls contained the same final concentration of vehicle as the compound-containing wells. Hydrogen peroxide (H2O2) stock was a 30% solution in water (Aldrich). The medium was removed and replaced with a suitable volume of fresh DMEM plus FBS (Gibco). Small hydrogen peroxide aliquots were then added to a final concentration of 0.2 mM. Cells were then exposed for 30 min at 37° C. After this time the medium was removed and replaced with fresh one. The compounds were maintained in the medium for 24 hours. After this 24 hours cell viability was tested using the 3-[4,5-dimethylthiazol-2-yl]-2,5-diphenyltetrazolium bromide (MTT, Sigma) assay. After color development (15 min at 37° C.), samples were measured at 570-620 nm on a microplate reader (BioTek ELX800, BioTek Instruments Inc., Vermont, USA). Mean values of at least three independent wells from three experiments were calculated, and cell survival expressed as percent […] signal compared with untreated control conditions.

BV2 microglia = assay: Nitric oxide production (nitrite, Griess reaction) by LPS plus IFNγ activated BV2 microglia; type: cell-based, mouse; details: LPS 100 ng/mL + IFNγ 50 pg/mL, 24 h
Protocol: BV2 cells are a murine microglial-derived cell line widely used as in vitro model for the study of compounds that could modulate microglial mediated neuronal damage. When stimulated, BV2 microglia releases neurotoxic and neuroinflammatory factors such as tumor necrosis factor alpha (TNFα), interleukin 6 (IL6) or nitric oxide (NO).
The mouse microglial cell line BV-2 was purchased at the Istituto Nazionale per la Ricerca sul Cancro (1ST, Genova, Italy). BV-2 cells were cultured in RPMI-1640 medium (Gibco Invitrogen, Paisley, Scotland, UK) supplemented with 10% FBS and 0.1% penicillin-streptomycin (both from Gibco Invitrogen). Cells were maintained at 37° C. in a 5% CO2 humidified atmosphere. BV-2 microglial cells were seeded at a density of 5×10^4 cells/mL. The following day, cells were treated with the compound of formula (I), the compound of formula (II) or the combination of both compounds, 30 minutes before stimulation with LPS 100 ng/mL and gamma-interferon (IFNγ) 50 pg/mL (both from Sigma-Aldrich, St. Louis, Mo., USA). Control wells contained the same final concentration of vehicle as the compound-containing wells. Culture supernatants were collected 24 h after LPS/IFNγ stimulation and stored at −20° C. until assayed for nitrites analysis.
Nitrite levels, direct indicators of NO production, were quantified by the Griess reaction. Briefly, 50 μL of culture medium was mixed in a 96-well plate with 25 μL of Griess reagent A (sulfanilamide, Sigma-Aldrich) and 25 μL of reagent B (N-1-naphthyl ethylene-diamine, Sigma-Aldrich). After color development (10 min at 23 to 25° C.), samples were measured at 540 nm on a microplate reader (BioTek ELX800, BioTek Instruments Inc., Vermont, USA). Nitrite concentration was determined from a sodium nitrite standard curve. Values of at least three independent wells from three experiments were calculated.
The compound of formula (I) was oleanolic acid (4.44 mg/L), the compound of formula (II) was verbascoside (3.12 mg/L), and the combination of the compound of formula (I) and the compound of formula (II) comprised oleanolic acid (4.44 mg/L) and verbascoside (3.12 mg/L). Stock solutions of the compounds (50 mM) were prepared in dimethyl sulfoxide (DMSO, Sigma-Aldrich). Solutions for cell treatment were prepared by diluting stock solutions in culture media immediately before being added to the cells (DMSO concentration: 0.5%). Controls contained the same final concentration of vehicle as the compound-containing wells. Three independent experiments were carried out.
The procedures for this assay were as described above in Example 2, wherein the compound of formula (I) was maslinic acid (13.20 mg/L), the compound of formula (II) was verbascoside (3.12 mg/L), and the and the combination of the compound of formula (I) and the compound of formula (II) comprised maslinic acid (13.20 mg/L) and verbascoside (3.12 mg/L). Stock solutions of the compounds (50 mM) were prepared in dimethyl sulfoxide (DMSO, Sigma-Aldrich). Solutions for cell treatment were prepared by diluting stock solutions in culture media immediately before being added to the cells (DMSO concentration: 0.5%). Controls contained the same final concentration of vehicle as the compound-containing wells. Three independent experiments were performed.

[1] = oleanolic acid 4.44 mg/L alone, listed as OLA

OCCc1ccc(O)c(O)c1 [hydroxytyrosol, 2-(3,4-dihydroxyphenyl)ethanol]
NSC34 survival increase (vs. H2O2) (NSC34 motor neurons; hydroxytyrosol 1.54 mg/L alone): 21.67%
NSC34 survival increase (vs. H2O2) (NSC34 motor neurons; hydroxytyrosol 1.54 mg/L alone, listed as HST): 21.67%

CC1(C)CC[C@]2(C(=O)O)CC[C@]3(C)C(=CC[C@@H]4[C@@]5(C)CC[C@H](O)C(C)(C)[C@@H]5CC[C@]43C)[C@@H]2C1 [oleanolic acid]
BV2 NO reduction (vs. LPS + IFNγ) (BV2 microglia; oleanolic acid 4.44 mg/L alone): 17.33%
BV2 NO reduction (vs. LPS + IFNγ) (BV2 microglia; [1]): 17.33%
NSC34 survival increase (vs. H2O2) (NSC34 motor neurons; oleanolic acid 4.44 mg/L alone): 5.33%
NSC34 survival increase (vs. H2O2) (NSC34 motor neurons; [1]): 5.33%

C[C@@H]1O[C@@H](O[C@@H]2[C@@H](O)[C@H](OCCc3ccc(O)c(O)c3)O[C@H](CO)[C@H]2OC(=O)/C=C/c2ccc(O)c(O)c2)[C@H](O)[C@H](O)[C@H]1O [verbascoside]
BV2 NO reduction (vs. LPS + IFNγ) (BV2 microglia; verbascoside 3.12 mg/L alone): 14.67%
BV2 NO reduction (vs. LPS + IFNγ) (BV2 microglia; verbascoside 3.12 mg/L alone, listed as VRB): 14.67%

CC1(C)CC[C@]2(C(=O)O)CC[C@]3(C)C(=CC[C@@H]4[C@@]5(C)C[C@@H](O)[C@H](O)C(C)(C)[C@@H]5CC[C@]43C)[C@@H]2C1 [maslinic acid]
BV2 NO reduction (vs. LPS + IFNγ) (BV2 microglia; maslinic acid 13.20 mg/L alone): 18.67%
BV2 NO reduction (vs. LPS + IFNγ) (BV2 microglia; maslinic acid 13.20 mg/L alone, listed as MSA): 18.67%

Reference: patent US10376529B2, “Combination of pentacyclic triterpenes and hydroxytyrosol and derivatives thereof” (NATAC BIOTECH, S.L, priority 2013, dated 2019)
